According to US6541463B1, “Inhibitors of type 5 and type 3 17β-hydroxysteroid dehydrogenase and methods for their use” (Endorecherche, Inc., priority 1998, dated 2003):
Read-outs that look alike come from different tables or passages of the source.

Columns and labels:
[1] = tested on: Shionogi mouse mammary carcinoma cells; assay: Antiandrogenic activity: inhibition of DHT-induced proliferation of Shionogi cells; assay type: cell-based
Procedure, shortened: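 Readout was direct Coulter counting of Shionogi mouse mammary tumour cells after 10–12 days' culture with increasing concentrations of agents and DHT, with medium refreshed every 3–4 days. Medium used dextran-coated charcoal-treated serum. Cells were plated at 20 000/well in triplicate, and ED50 came from least-square regression.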

[2] = target: T1, estrogen receptor (Rattus norvegicus, UniProt P06211); assay: Estrogen receptor (ER) assay: inhibition of [3H]E2 binding, uterine cytosol
T1 construct: from tissue; host or cells: uterine cytosol of gonadectomized female Sprague-Dawley rats
T1 sequence (P06211 1-600): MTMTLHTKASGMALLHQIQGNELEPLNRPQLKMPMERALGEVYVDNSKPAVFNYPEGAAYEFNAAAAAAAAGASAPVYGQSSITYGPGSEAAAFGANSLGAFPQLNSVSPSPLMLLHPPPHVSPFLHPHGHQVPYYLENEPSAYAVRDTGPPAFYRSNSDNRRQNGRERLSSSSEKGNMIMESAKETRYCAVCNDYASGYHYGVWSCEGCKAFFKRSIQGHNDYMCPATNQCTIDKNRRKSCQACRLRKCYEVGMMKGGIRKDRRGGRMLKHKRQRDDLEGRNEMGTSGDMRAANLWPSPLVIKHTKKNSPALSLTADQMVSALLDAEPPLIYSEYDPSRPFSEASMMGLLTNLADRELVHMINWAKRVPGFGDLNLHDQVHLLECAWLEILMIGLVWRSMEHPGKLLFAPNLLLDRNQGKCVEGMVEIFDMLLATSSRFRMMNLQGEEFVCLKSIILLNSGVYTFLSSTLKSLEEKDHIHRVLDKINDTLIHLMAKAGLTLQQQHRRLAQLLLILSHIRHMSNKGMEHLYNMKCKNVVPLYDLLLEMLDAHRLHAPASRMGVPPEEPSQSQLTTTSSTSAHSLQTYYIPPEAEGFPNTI
Protocol: Female Sprague-Dawley rats (Crl: CD(SD)Br) weighing 200-300 g were obtained from Charles-River Inc. (St-Constant, Québec, Canada). The rats were gonadectomized under general anesthesia (Isoflurane) and killed by cervical dislocation 24 hours later. The uteri were rapidly removed, dissected free from adhering tissue and frozen on dry-ice. Uteri were kept at −80° C. until assay. All subsequent steps were performed at 0-4° C. Uteri were homogenized in 10 vol (wt/vol) of buffer A (25 mM Tris-HCI, 1.5 mM EDTA disodium salt, 10 mM α-monothioglycerol, 10% glycerol, and 10 mM sodium molybdate, pH 7.4), using a Polytron PT-10 homogenizer (Brinkman Instruments, Canada) at a setting of 5 for three periods of 10 sec, with intervals of 10 sec for cooling. The homogenate was then centrifuged at 105,000×g for 60 min in a Beckman L5-65 ultracentrifuge (Fullerton, Calif.). The protein concentration of the cytosol fraction was measured according to the method of Bradford (Anal. Biochem. 72: 248-254, 1976), using bovine serum albumin as standard.
Estrogen binding was measured using the dextran-coated charcoal adsorption technique as described previously (Asselin et al., Endocrinology, 101: 666-671, 1977; Asselin and Labrie, J. Steroid Biochem., 9: 1079-1082, 1978). Briefly, [^3H]E2 solubilized in ethanol were diluted into buffer A. Aliquots of uterine cytosol preparation (0.1 ml) were incubated with 5 nM [^3H]E2 (˜200,000 cpm, 0.1 ml) in the presence or absence of the indicated concentrations of unlabeled compounds (0.1 ml, prepared in buffer A containing 10% ethanol) for 3 h at room temperature. Unbound steroids were then separated by incubation for 15 min at 0-4° C. with 0.3 ml 0.5% Norit-A and 0.05% Dextran T-70 in buffer B (1.5 mM EDTA disodium salt, 10 mM monothioglycerol, and 10 mM Tris-HCI, pH 7.4) and centrifuged at 3,000×g for 15 min. Aliquots of the supernatant (0.3 ml) were removed for radioactivity measurement.

[3] = Table 4′, DHT-induced proliferation, E^−6 (10^−6 M)
[4] = Table 4′, DHT-induced proliferation, E^−7
[5] = Mus musculus, read-out: Antiandrogenic Activity Shionogi, DHT [IC50]

SMILES: CN(C)C(=O)c1ccc2c(c1)CCC1C2CCC2(C)C1CCC21CCC(C)(C)C(=O)O1 (centres unmarked) [EM-1403]
- inhibition at 1 µM ([1]; Mus musculus, 10^−6 M inhibitor, negative number = stimulation reduced, read-out: percentage of inhibition of DHT-induced proliferation of Shionogi cells): 54%
- Antiandrogenic Activity Shionogi, DHT E^−6 [1, 3]: −54%
- Antiandrogenic Activity Shionogi, DHT E^−7 [1, 4]: 0%
- % Inhibition Estrogen Receptor E^−6 ([2]; Table 4′, E^−6): 0%
- % Inhibition Estrogen Receptor E^−8 ([2]; Table 4′, E^−8): 0%

SMILES: COc1ccc2c(c1)C(=O)CC1C2CC[C@@]2(C)C1CC[C@@]21CCC(C)(C)C(=O)O1 (some centres unmarked) [EM-1394]
- Antiandrogenic Activity Shionogi, DHT E^−6 [1, 3]: −23%
- Antiandrogenic Activity Shionogi, DHT E^−7 [1, 4]: 0%
- % Inhibition Estrogen Receptor E^−6 ([2]; Table 4′, E^−6): 8%
- % Inhibition Estrogen Receptor E^−8 ([2]; Table 4′, E^−8): 4%

SMILES: CC12CCC3c4ccc(F)cc4CCC3C1CCC21CCCC(=O)O1 (centres unmarked) [EM-1170-CS]
- Antiandrogenic Activity Shionogi, DHT E^−6 [1, 3]: −38%
- Antiandrogenic Activity Shionogi, DHT E^−7 [1, 4]: 15%
- % Inhibition Estrogen Receptor E^−6 ([2]; Table 4′, E^−6): 0%
- % Inhibition Estrogen Receptor E^−8 ([2]; Table 4′, E^−8): 0%

SMILES: CCCC(=O)OC1(C(C)=O)CCC2C3C=C(C)C4=CC(=O)CC(C)C4(C)C3CCC21C (centres unmarked) [CS-245]
- Antiandrogenic Activity Shionogi, DHT ([1]; E^−6): −109
- Antiandrogenic Activity Shionogi, DHT ([1]; E^−7): −106
- IC50 [1, 5]: 12 nM
- % Inhibition Estrogen Receptor ([2]; E^−6): 2%
- % Inhibition Estrogen Receptor ([2]; E^−8): 0%

SMILES: CCCC(=O)O[C@]1(C)C(=O)CCC2C3C=C(C)C4=CC(=O)CC[C@]4(C)C3CC[C@@]21C (some centres unmarked) [EM-1078]
- Antiandrogenic Activity Shionogi, DHT E^−6 ([1]; with DHT, E^−6): −72
- Antiandrogenic Activity Shionogi, DHT E^−7 ([1]; with DHT, E^−7): −79
- % Inhibition Estrogen Receptor E^−6 ([2]; E^−6): 0%
- % Inhibition Estrogen Receptor E^−8 ([2]; E^−8): 5%

SMILES: CC1(C)CC[C@@]2(CCC3C4CCc5cc(C(=O)O)ccc5C4CC[C@@]32C)OC1=O (stereo partly drawn) [EM-1401, 3-Carboxy-1,3,5(10)-estratrien-17(R)-spiro-2′-(5′,5′-dimethyl-6′-oxo)tetrahydropyran]
- IC50 ([1]; Mus musculus, Table 4′, bracketed values, read-out: Antiandrogenic Activity Shionogi, DHT [IC50 (nM)]): > 1000 nM
- % Inhibition Estrogen Receptor E^−6 ([2]; Table 4′, E^−6): 2%
- % Inhibition Estrogen Receptor E^−8 ([2]; Table 4′, E^−8): 5%

SMILES: CC1(C)CCC2(CCC3C4CCc5c(cc(Cl)c(OS(C)(=O)=O)c5Cl)C4CCC32C)OC1=O (centres unmarked) [EM-1392-CS]
- Antiandrogenic Activity Shionogi, DHT E^−6 [1, 3]: −75%
- Antiandrogenic Activity Shionogi, DHT E^−7 [1, 4]: 0%
- % Inhibition Estrogen Receptor E^−6 ([2]; Table 4′, E^−6): 0%
- % Inhibition Estrogen Receptor E^−8 ([2]; Table 4′, E^−8): 0%

SMILES: CC1(C)CC[C@@]2(CC[C@H]3[C@@H]4CCc5c(cc(Br)c(O)c5Br)[C@H]4CC[C@@]32C)OC1=O [EM-1382-CS]
- Antiandrogenic Activity Shionogi, DHT E^−6 [1, 3]: 0%
- Antiandrogenic Activity Shionogi, DHT E^−7 [1, 4]: 0%
- % Inhibition Estrogen Receptor E^−6 ([2]; Table 4′, E^−6): 3%
- % Inhibition Estrogen Receptor E^−8 ([2]; Table 4′, E^−8): 0%

SMILES: COC(=O)CCCC(=O)O[C@]1(C(C)=O)CC[C@H]2[C@@H]3C=C(C)C4=CC(=O)CC[C@]4(C)[C@H]3CC[C@@]21C [EM-1007, 6-Methyl-4,6-pregnadien-17α-ol-3,20-dione 4′-Carbomethoxybutyrate]
- Antiandrogenic Activity Shionogi, DHT ([1]; E^−6): −76
- Antiandrogenic Activity Shionogi, DHT ([1]; E^−7): −14
- % Inhibition Estrogen Receptor ([2]; E^−6): 0%
- % Inhibition Estrogen Receptor ([2]; E^−8): 0%

SMILES: CCS(=O)(=O)Oc1ccc2c(c1)CCC1C2CCC2(C)C1CCC21CCC(C)(C)C(=O)O1 (centres unmarked) [EM-1364-CS]
- Antiandrogenic Activity Shionogi, DHT E^−6 [1, 3]: −59%
- Antiandrogenic Activity Shionogi, DHT E^−7 [1, 4]: −11%
- % Inhibition Estrogen Receptor E^−6 ([2]; Table 4′, E^−6): 5%
- % Inhibition Estrogen Receptor E^−8 ([2]; Table 4′, E^−8): 0%

SMILES: CN(C)CCOc1ccc2c(c1)CCC1C2CCC2(C)C1CCC21CCC(C)(C)C(=O)O1 (centres unmarked) [EM-1389-CS]
- Antiandrogenic Activity Shionogi, DHT E^−6 [1, 3]: −103%
- Antiandrogenic Activity Shionogi, DHT E^−7 [1, 4]: −94%
- % Inhibition Estrogen Receptor E^−6 ([2]; Table 4′, E^−6): 0%
- % Inhibition Estrogen Receptor E^−8 ([2]; Table 4′, E^−8): 0%

SMILES: CC(=O)O[C@]1(C)C(=O)CCC2C3C=C(C)C4=CC(=O)C=C[C@]4(C)C3CC[C@@]21C (some centres unmarked) [CS-237]
- IC50 ([1]; Mus musculus, with DHT, value in square brackets on second line, read-out: Antiandrogenic Activity Shionogi DHT [IC50 (nM)]): 95 nM
- Antiandrogenic Activity Shionogi, DHT E^−6 ([1]; with DHT, E^−6): −106
- Antiandrogenic Activity Shionogi, DHT E^−7 ([1]; with DHT, E^−7): −51
- % Inhibition Estrogen Receptor E^−6 ([2]; E^−6): 0%
- % Inhibition Estrogen Receptor E^−8 ([2]; E^−8): 0%

SMILES: CC1(C)CC[C@@]2(CCC3C4CCc5cc6oncc6cc5C4CC[C@@]32C)OC1=O (stereo partly drawn) [EM-1407-CS, 1,3,5(10)-estratrien-(2,3-oximino)-17(R)-spiro-2′-(5′,5′-dimethyl-6′-oxo)tetrahydropyran]
- Antiandrogenic Activity Shionogi, DHT E^−6 [1, 3]: −96%
- Antiandrogenic Activity Shionogi, DHT E^−7 [1, 4]: −16%
- % Inhibition Estrogen Receptor E^−6 ([2]; Table 4′, E^−6): 0%
- % Inhibition Estrogen Receptor E^−8 ([2]; Table 4′, E^−8): 2%

SMILES: CC1(C)CCC2(CCC3C4CCc5cc(O)c([N+](=O)[O-])cc5C4CCC32C)OC1=O (centres unmarked) [EM-1125-CS]
- Antiandrogenic Activity Shionogi, DHT E^−6 [1, 3]: −43%
- Antiandrogenic Activity Shionogi, DHT E^−7 [1, 4]: −30%
- % Inhibition Estrogen Receptor E^−6 ([2]; Table 4′, E^−6): 2%
- % Inhibition Estrogen Receptor E^−8 ([2]; Table 4′, E^−8): 2%

SMILES: COCCOc1cc2c(cc1C(=O)O)C1CCC3(C)C(CCC34CCC(C)(C)C(=O)O4)C1CC2 [EM-1405, 2-Carboxy-3-(2″-methoxyethyloxy)-1,3,5(10)-estratrien-17(R)-spiro-2′-(5′,5′-dimethyl-6′-oxo)tetrahydropyran]
- Antiandrogenic Activity Shionogi, DHT E^−6 [1, 3]: 0%
- Antiandrogenic Activity Shionogi, DHT E^−7 [1, 4]: 0%
- % Inhibition Estrogen Receptor E^−6 ([2]; Table 4′, E^−6): 0%
- % Inhibition Estrogen Receptor E^−8 ([2]; Table 4′, E^−8): 0%

SMILES: COc1ccc2c(c1)CCC1C2CCC2(C)C1CCC21CCC(C)(C)C(=O)O1 (centres unmarked) [EM-1370]
- Antiandrogenic Activity Shionogi, DHT E^−6 [1, 3]: −28%
- Antiandrogenic Activity Shionogi, DHT E^−7 [1, 4]: 0%
- % Inhibition Estrogen Receptor E^−6 ([2]; Table 4′, E^−6): 2%
- % Inhibition Estrogen Receptor E^−8 ([2]; Table 4′, E^−8): 0%

SMILES: COc1c(Br)cc2c(c1Br)CCC1C2CCC2(C)C1CCC21CCC(C)(C)C(=O)O1 (centres unmarked) [EM-1385-CS]
- Antiandrogenic Activity Shionogi, DHT E^−6 [1, 3]: −61%
- Antiandrogenic Activity Shionogi, DHT E^−7 [1, 4]: 0%
- % Inhibition Estrogen Receptor E^−6 ([2]; Table 4′, E^−6): 4%
- % Inhibition Estrogen Receptor E^−8 ([2]; Table 4′, E^−8): 2%

SMILES: CC(=O)[C@@]1(OC(=O)CCCCF)CCC2C3C=C(C)C4=CC(=O)CC[C@]4(C)C3CC[C@@]21C (some centres unmarked) [EM-1195-CS]
- Antiandrogenic Activity Shionogi, DHT ([1]; E^−6): −110
- Antiandrogenic Activity Shionogi, DHT ([1]; E^−7): −105
- % Inhibition Estrogen Receptor ([2]; E^−6): 0%
- % Inhibition Estrogen Receptor ([2]; E^−8): 0%

SMILES: COc1ccc(CC(=O)O[C@]2(C(C)=O)CCC3C4C=C(C)C5=CC(=O)C=C[C@]5(C)C4CC[C@@]32C)cc1 (some centres unmarked) [EM-1291]
- Antiandrogenic Activity Shionogi, DHT ([1]; E^−6): −48
- Antiandrogenic Activity Shionogi, DHT ([1]; E^−7): −13
- % Inhibition Estrogen Receptor ([2]; E^−6): 0%
- % Inhibition Estrogen Receptor ([2]; E^−8): 0%

SMILES: CCCCN(C)C(=O)[C@@]1(OC(C)=O)CCC2C3C=C(C)C4=CC(=O)CC[C@]4(C)C3CC[C@@]21C (some centres unmarked) [EM-1165]
- Antiandrogenic Activity Shionogi, DHT ([1]; E^−6): −102
- Antiandrogenic Activity Shionogi, DHT ([1]; E^−7): −14
- IC50 [1, 5]: 232 nM
- % Inhibition Estrogen Receptor ([2]; E^−6): 0%
- % Inhibition Estrogen Receptor ([2]; E^−8): 0%
